Measurements taken from patent US10316017B2, “COT modulators and methods of use thereof” (Gilead Sciences, Inc., priority 2015, dated 2019).
Read-outs that look alike come from different tables or passages of the source.

How the values were obtained:
[1] = tested on: TNFα production in LPS-stimulated human monocytes; assay: Cot Monocyte TNFα Cell Based Assay; conditions: Homo sapiens, Monocyte, read-out: EC50 TNF
In short: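 Percent-of-control values derive from TR-FRET ratios of TNFα in spun-down media, referenced to unstimulated and LPS-stimulated wells. Exposure: 1 h compound preincubation, then 50 pg/ml LPS for 4 h, both at 37 °C, with 0.5% final DMSO.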

[2] = target: T1, human Cot catalytic domain (30-397 amino acids) (Homo sapiens, UniProt P41279); assay: High Throughput Cot Biochemical Assay (KinEASE TR-FRET); conditions: read-out: IC50 HTRF
T1 construct: Purified recombinant human Cot catalytic domain (30-397 amino acids) was purchased from Cama Biosciences; purchased Cama Biosciences (so in the source)
In short: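 Phosphorylation of 1 μM XL665-STK3 peptide by 5 nM Cot catalytic domain was measured by time-resolved FRET using a europium […] antibody. ATP was 400 μM; buffer was 10 mM MOPS pH 7.0 with Mg2+ and DTT.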

[3] = TNFα in LPS-stimulated human monocytes
[4] = Cot KinEASE TR-FRET (HTRF) biochemical assay, 400 μM ATP
[5] = Cot biochemical HTRF (KinEASE TR-FRET) assay
[6] = LPS-stimulated human monocytes, TNFα TR-FRET
[7] = Cot KinEASE TR-FRET, 400 μM ATP

T1 sequence (P41279 30-397): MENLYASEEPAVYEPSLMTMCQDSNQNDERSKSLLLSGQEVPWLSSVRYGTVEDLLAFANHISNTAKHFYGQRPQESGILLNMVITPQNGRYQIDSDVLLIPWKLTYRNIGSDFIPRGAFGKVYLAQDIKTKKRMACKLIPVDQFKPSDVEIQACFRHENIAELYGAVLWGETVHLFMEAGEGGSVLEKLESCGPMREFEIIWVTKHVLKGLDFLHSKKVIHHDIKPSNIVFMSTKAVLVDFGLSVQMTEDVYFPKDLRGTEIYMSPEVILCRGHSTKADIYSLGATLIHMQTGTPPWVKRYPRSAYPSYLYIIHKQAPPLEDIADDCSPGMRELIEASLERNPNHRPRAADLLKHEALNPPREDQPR

Row | SMILES | EC50 [1, 3] | IC50 [2, 4] | IC50 [2, 5] | EC50 [1, 6] | IC50 [2, 7]
1 | [2H][C@](Nc1cc(Cl)c2ncc(C#N)c(Nc3ccc(F)c(Cl)c3)c2c1)(c1ccc(F)cc1)c1cn(CC(=O)O)nn1 [Example 116, (S)-2-(4-(((8-chloro-4-((3-chloro-4-fluorophenyl)amino)-3-cyanoquinolin-6-yl)amino)(4-fluorophenyl)methyl-d)-1H-1,2,3-triazol-1-yl)acetic acid] | > 10000 nM | 14 nM | – | – | –
2 | N#Cc1cnc2c(Cl)cc(N[C@@H](c3ccc(Cl)cc3)c3c[nH]nn3)cc2c1Nc1ccc2c(cnn2Cc2ccccc2)c1 [Example 638, (S)-4-((1-benzyl-1H-indazol-5-yl)amino)-8-chloro-6-(((4-chlorophenyl)(1H-1,2,3-triazol-4-yl)methyl)amino)quinoline-3-carbonitrile] | 2650 nM | – | > 10000 nM | – | –
3 | CC(C)n1cc([C@@H](Nc2cc(Cl)c3ncc(C#N)c(NCCCN(C)C)c3c2)c2ccccc2)nn1 [Example 542, (S)-8-chloro-4-((3-(dimethylamino)propyl)amino)-6-(((1-isopropyl-1H-1,2,3-triazol-4-yl)(phenyl)methyl)amino) quinoline-3-carbonitrile] | > 10000 nM | – | > 10000 nM | – | –
4 | Cc1c([C@H](Nc2cc(C#N)c3ncc(C#N)c(NCC(C)(C)C)c3c2)c2cn(C3(C(F)F)CC3)nn2)cccc1-n1cnnn1 [Example 1082, (S)-6-(((1-(1-(difluoromethyl)cyclopropyl)-1H-1,2,3-triazol-4-yl)(2-methyl-3-(1H-tetrazol-1-yl)phenyl)methyl)amino)-4-(neopentylamino)quinoline-3,8-dicarbonitrile] | – | – | – | 262 nM | 2 nM
5 | Cc1c(C#N)cccc1[C@H](Nc1cc(Cl)c2ncc(C#N)c(NCC(C)(C)C)c2c1)c1cn([C@@H](C)CF)nn1 [Example 1103, 8-chloro-6-(((S)-(3-cyano-2-methylphenyl)(1-((S)-1-fluoropropan-2-yl)-1H-1,2,3-triazol-4-yl)methyl)amino)-4-(neopentylamino)quinoline-3-carbonitrile] | – | – | – | 26 nM | 5 nM
6 | CN(C)C(=O)c1cccc([C@H](Nc2cc(Cl)c3ncc(C#N)c(Nc4ccc(Cl)c(Cl)c4F)c3c2)c2c[nH]nn2)c1 [Example 573, (S)-3-(((8-chloro-3-cyano-4-((3,4-dichloro-2-fluorophenyl)amino)quinolin-6-yl)amino)(1H-1,2,3-triazol-4-yl)methyl)-N,N-dimethylbenzamide] | 462 nM | – | 10 nM | – | –
7 | Cn1ccnc1-c1cccc([C@H](Nc2cc(Cl)c3ncc(C#N)c(Nc4cnc(F)c(F)c4)c3c2)c2c[nH]nn2)c1 [Example 386, (S)-8-chloro-4-((5,6-difluoropyridin-3-yl)amino)-6-(((3-(1-methyl-1H-imidazol-2-yl)phenyl)(1H-1,2,3-triazol-4-yl)methyl)amino)quinoline-3-carbonitrile] | 1440 nM | 5 nM | – | – | –
8 | Cc1c([C@H](Nc2cc(C#N)c3ncc(C#N)c(NCC(C)(C)C)c3c2)c2cn(C3(C(F)F)CC3)nn2)cccc1-n1ccnc1 [Example 1077] | – | – | – | 77 nM | 2 nM

Now from value to molecule:

Row | EC50 [1, 3] | IC50 [2, 4] | IC50 [2, 5] | EC50 [1, 6] | IC50 [2, 7] | SMILES
9 | 585 nM | – | 47 nM | – | – | N#Cc1cnc2c(Cl)cc(N[C@@H](c3ccc(Cl)cc3)c3cn(C4COC4)nn3)cc2c1Nc1cnc(F)c(F)c1 [Example 494, (S)-8-chloro-6-(((4-chlorophenyl)(1-(oxetan-3-yl)-1H-1,2,3-triazol-4-yl)methyl)amino)-4-((5,6-difluoropyridin-3-yl)amino)quinoline-3-carbonitrile]
10 | 5920 nM | 280 nM | – | – | – | [2H][C@](Nc1cc(Cl)c2ncc(C#N)c(NC(CC)Cc3ccccc3)c2c1)(c1ccc(F)cc1)c1cn(C2CC2)nn1 (stereo partly drawn) [Example 175, 8-chloro-6-(((S)-(1-cyclopropyl-1H-1,2,3-triazol-4-yl)(4-fluorophenyl)methyl-d)amino)-4-((1-phenylbutan-2-yl)amino)quinoline-3-carbonitrile]
11 | – | – | – | 637 nM | 33 nM | [2H]c1c([C@@]([2H])(Nc2cc(C#N)c3ncc(C#N)c(NCC(C)(C)C)c3c2)c2c(F)cccc2Cl)nnn1C1(C)CC1 [Example 1048, (S)-6-(((2-chloro-6-fluorophenyl)(1-(1-methylcyclopropyl)-1H-1,2,3-triazol-4-yl-5-d)methyl-d)amino)-4-(neopentylamino)quinoline-3,8-dicarbonitrile]
12 | 2980 nM | – | 108 nM | – | – | CC(C)(C)N1CCC(n2cc([C@@H](Nc3cc(Cl)c4ncc(C#N)c(Nc5cc(Cl)cc(Cl)c5)c4c3)c3ccc(Cl)cc3)nn2)CC1 [Example 756, (S)-6-(((1-(1-(tert-butyl)piperidin-4-yl)-1H-1,2,3-triazol-4-yl)(4-chlorophenyl)methyl)amino)-8-chloro-4-((3,5-dichlorophenyl)amino)quinoline-3-carbonitrile]
13 | 418 nM | – | 4 nM | – | – | CC[C@@H](Nc1c(C#N)cnc2c(Cl)cc(N[C@@H](c3cccc(C(=O)N(C)C)c3)c3c[nH]nn3)cc12)c1ccccc1 [Example 598, 3-((S)-((8-chloro-3-cyano-4-(((R)-1-phenylpropyl)amino)quinolin-6-yl)amino)(1H-1,2,3-triazol-4-yl)methyl)-N,N-dimethylbenzamide]
14 | 409 nM | – | 9 nM | – | – | [2H][C@](Nc1cc(Cl)c2ncc(C#N)c(N[C@H](CC)c3ccccc3)c2c1)(c1ccc(F)cc1)c1c[nH]nn1 [Example 415, 8-chloro-6-(((S)-(4-fluorophenyl)(1H-1,2,3-triazol-4-yl)methyl-d)amino)-4-(((R)-1-phenylpropyl)amino)quinoline-3-carbonitrile]
15 | 143 nM | 6 nM | – | – | – | [2H][C@](Nc1cc(Cl)c2ncc(C#N)c(NCC(C)(C)C)c2c1)(c1ccc(F)cc1)c1cn(C2CC2)nn1 [Compound 1]
16 | > 10000 nM | 1620 nM | – | – | – | [2H]C(Nc1cc(Cl)c2ncc(C#N)c(NC(=O)C(C)(C)C)c2c1)(c1ccc(F)cc1)c1cn(C2CC2)nn1 (centres unmarked) [Compound 33]
17 | – | – | – | 21 nM | 1 nM | N#CCC[C@@H](Nc1c(C#N)cnc2c(C#N)cc(N[C@@H](c3ccccc3)c3cn(C4(C#N)CC4)nn3)cc12)c1ccccc1 [Example 961, 4-(((R)-3-cyano-1-phenylpropyl)amino)-6-(((S)-(1-(1-cyanocyclopropyl)-1H-1,2,3-triazol-4-yl)(phenyl)methyl)amino) quinoline-3,8-dicarbonitrile]
18 | 348 nM | 28 nM | – | – | – | [2H][C@](Nc1cc(Cl)c2ncc(C#N)c(N[C@H](COC)c3ccccc3)c2c1)(c1ccc(F)cc1)c1cn(C2CC2)nn1 [Example 181, 8-chloro-6-(((1-cyclopropyl-1H-1,2,3-triazol-4-yl)(4-fluorophenyl)methyl-d)amino)-4-(((S)-2-methoxy-1-phenylethyl)amino) quinoline-3-carbonitrile]
19 | 5870 nM | > 10000 nM | – | – | – | [2H][C@](Nc1ccc2nc(F)c(C#N)c(NCC(C)(C)C)c2c1)(c1ccc(F)cc1)c1cn(C2CC2)nn1 [Example 151, (S)-6-(((1-cyclopropyl-1H-1,2,3-triazol-4-yl)(4-fluorophenyl)methyl-d)amino)-2-fluoro-4-(neopentylamino) quinoline-3-carbonitrile]
